Reference: EP1247528A1, “Pharmaceutical or cosmetic compositions containing extracts from Arachis hypogaea L” (Cognis France S.A., priority 2001, dated 2002)

What was measured:
Xanthin Oxidase [1] = test: Luminol-Test (xanthine oxidase system, luminescence); type: biochemical
Source text: (§1) Die optische Dichte des Extraktes lag bei 513 nm. Als erstes Testsubstrat wurde Diphenylpicrylhydrazyl (DPPH) gewählt, ein purpurrot gefärbtes stabiles Radikal, welches durch Inkontaktbringen mit Radikalfängern in sein ungefärbtes Leucoderivat übergeht. Der Farbwechsel kann photometrisch verfolgt werden. Die Meßergebnisse sind in Tabelle 2 zusammengefaßt ("DPPH-Test").. In einem weiteren Test wurde Xanthin Oxidase als Testsystem gewählt. Das Enzym bewirkt bei oxidativem Stress die Umwandlung von Purinbasen, wie z.B. Adenin oder Guanin in […], wobei die intermediär gebildeten Sauerstoffradikale durch Reaktion mit Luminol über die Lumineszenz nachgewiesen und quantitativ bestimmt werden können. In Gegenwart von Substanzen mit radikalfangenden Eigenschaften vermindert sich die Lumineszenzausbeute. Der NBT-Wert bestimmt den Gehalt von […], welches aus NBT durch das Sauerstoffradikal gebildet wird. Die optische Dichte wurde bei 540 nm bestimmt.
(§2) Diese Ergebnisse sind in Tabelle 3 zusammengefaßt; wieder ist die Inhibierung in %-absolut angegeben ("Luminol-Test"). Tab.

Xanthin Oxidase [2] = test: Luminol + Microperoxydase test (xanthine oxidase system); type: biochemical
Source text: as §1, §2

Xanthin Oxidase [3] = test: NBT test (xanthine oxidase system, optical density at 540 nm); type: biochemical
Source text: as §1, §2

[4] = DPPH-Test (chemical test, activity against free radicals)
Source text: as §1

[5] = system: menschlichen Keratinozyten; test: Cell protection against UVB on human keratinocytes cultured in vitro; type: cell-based; details: UVB 50 mJ/cm^2; 0,03 % test substance
Method: Methode: Der Effekt von UVB-Strahlung wurde an Keratinocyten in vitro untersucht indem die Freisetzung des Cytoplasaenzyms LDH (Lactat Dehydrogenase) bestimmt wurde. Dieses Enzym dient als Marker für eine Zellschädigung.
Zur Durchführung der Tests wurde ein definiertes Medium, das fötales Kälberserum enthält, mit den Keratinozyten beimpft und der Pflanzenextrakt (mit Saline-Lösung verdünnt) 72 Stunden nach dem Beimpfen zugegeben. […]
Nach weiterer 1 tägiger Inkubation bei 37 °C und bei 5 % CO2 wurde der LDH-Gehalt im Überstand bestimmt. Der Gehalt von LDH- (Lactatdehydrogenase) wurde mittels einer Enzymreaktion bestimmt (verwendetes Kit zur Untersuchung des LDH Gehaltes von der Firma Roche). Die Anzahl adhärenter Keratinozyten wird (nach Trypsinbehandlung) mit einem Partikelzählgerät bestimmt. Tab.

[6] = Antioxidative capacity: inhibition of lipid peroxidation in liposomes (AOP50); type: biochemical; details: concentration at which lipid peroxidation is reduced by 50 %; Fe(II) ascorbate, 37 °C, 45 min, MDA-thiobarbituric acid at 532 nm
Method: Als Maß für die antioxidative Kapazität der Erdnusshäutchen Extrakte wurde ihre Fähigkeit bestimmt, die Lipidperoxidation in Liposomen zu verhindern. Dazu wurde eine 0,2 Gew.-%ige Liposomen Suspension aus Sojalecithin in Phosphatpuffer hergestellt. Die Lipidperoxidation wurde durch Zugabe eines Eisen(II)ascorbat Komplexes (10mM Fe(II)SO4, 50 mM Ascorbat) initiiert. Die Inkubation wurde bei 37 °C für 45 min. durchgeführt. Als Endprodukt der Lipidperoxidation entsteht Malondialdeyd, welches über eine Farbreaktion mit Thiobarbitursäure quantifiziert wird (photometrische Bestimming des Malondialdehyd-Thiobarbitursäure Komplexes bei 532 nm). Zur Bestimmung der antioxidativen Kapazität der Erdnusshäutchen Extrakte wurden diese in unterschiedlichen Konzentration vor der Zugabe des Eisen(II)ascorbat Komplexes zum Inkubationsansatz gegeben. Ermittelt wurde die Konzentration an Pflanzenextrakt (in µg/ml), bei der die Lipidperoxidation um 50 % verringert ist (= AOP50) im Vergleich zur Bestimmung ohne Zusatz an Pflanzenextrakt. D.h. je geringer die angegebene Konzentration AOP50, desto höher ist die antioxidative Kapazität des untersuchten Erdnussextraktes. Als Referenzsubstanz diente das Antioxidans n-Propylgallat. Tab.

[7] = Electron spin resonance spectroscopy (ESR), radical scavenging with spin trap DMPO; details: 5 mM solution (comparison)
Source text: Die Methode der Elektronenspinresonanz Spektroskopie beruht auf dem Prinzip der Generierung kurzlebiger Radikale über chemische Radikalgeneratoren, der Stabilisierung und Akkumulierung der Radikale mittels Radikalfänger (Spin-Trapper-Substanzen) und der Detektion der für die einzelnen Radikale typischen ESR-Spektren. Die radikalfangenden Eigenschaften der zu untersuchenden Substanzen werden durch die Abnahme der Signalintensitäten der getrappten Radikale charakterisiert. Im vorliegenden Fall wurde als Radikal Fänger (Spin Trapper) DMPO (5,5-Dimethyl-1-pyrrolin-N-oxid) verwendet. Die Signalintensität des mit Hilfe des DMPO gebildeten stabilen DMPO-Hydroxyadduktes wurde 100 % gesetzt. Die Abnahme dieses Signals in Abhängigkeit von der Konzentration des eingesetzten Pflanzenextraktes, ist ein Nachweis für die Radikal fangenden Eigenschaften der Extrakte.
Der Extrakt aus Beispiel 1 wurde mittels der ESR Spektroskopie untersucht. Bereits in einer Konzentration von 0,01 Gew.-% führte dieser Extrakt zu einer Abnahme des DMPO-Hydroxyaddukt Signals um 79 % auf ein Restsignal von 21 %. Bei einer Konzentration von 0,05 % zeigte sich eine Abnahme des Signals um 89 % und bei einer Konzentration von 0,5 % fand eine völlige Löschung des Signals statt. Als Vergleich diente eine 5 mM α-Tocopherol Lösung, die eine Abnahme des Signals um 65 % bewirkte.

humanen Fibroblasten = test: Cell protection against UVA on human fibroblasts cultured in vitro; type: cell-based; details: UVA 20 J/cm^2; 0,0003 % test substance
Method: Methode: Zur Durchführung dieser Tests wurde ein definiertes Kulturmedium mit den Fibroblasten mit fötalem Kälberserum beimpft und der Pflanzenextrakt (in dem definierten Medium mit 10 % Fötalem Kälberserum) 72 Stunden nach dem Beimpfen zugegeben.
Nach 48 stündiger Inkubation bei 37 °C und einem CO2-Gehalt von 5 % wurde das Kulturmedium durch Saline-Lösung (physiologische NaCI-Lösung) ersetzt und die Fibroblasten wurden mit einer UVA-Dosis bestrahlt (365 nm, 20 J/cm^2; Röhren: MAZDA FLUOR TFWN40).
Nach der Beendigung der Bestrahlung wurde der MDA-Spiegel (Malonaldialdehyd-Spiegel) in der überstehenden Natriumchlorid-Lösung quantitativ durch Reaktion mit Thiobarbitursäure bestimmt.
Außerdem wurde der Gehalt an Proteinen nach der Methode von Bradford bestimmt und der Gehalt an GSH untersucht wobei es sich um reduziertes Glutathion handelt. Der Gehalt an GSH wurde bstimmt nach der Methode von Hissin (Hissin PJ, Hilf R., A fluorometric method for determination of oxydised and reduced glutathione tissues, Anal. Biochem. 74, 214-226, 1976). Tab.

Molecule	EC50 in % Luminol (Xanthin Oxidase [1])	EC50 in % Luminol + Microperoxydase (Xanthin Oxidase [2])	EC50 in % NBT (Xanthin Oxidase [3])	EC50 in % DPPH-Test [4]	also measured
O=C1O[C@H]([C@@H](O)CO)C(O)=C1O [Ascorbinsäure]	0,0006%	0,0058%	0,5909%	0,0013%	–
CC(=O)Oc1ccccc1C(=O)O [Aspirin]	–	–	–	–	Anzahl Keratinocyten [5]: 52 % im Vergleich zur Kontrolle; Gehalt an LDH [5]: 46 % im Vergleich zur Kontrolle; Gehalt an PGE2 [5]: 4 % im Vergleich zur Kontrolle
CCCOC(=O)c1cc(O)c(O)c(O)c1 [n-Propylgallat]	–	–	–	–	AOP50 [6]: 2,9 µg/ml
Cc1c(C)c2c(c(C)c1O)CC[C@@](C)(CCC[C@H](C)CCC[C@H](C)CCCC(C)C)O2 [α-Tocopherol]	–	–	–	–	Abnahme des Signals [7]: 65%
Tocopherol	Kein Effekt bis zu 1%	Kein Effekt bis zu 1%	Kein Effekt bis zu 1%	0,0067%	Freigesetzter MDA (humanen Fibroblasten): 19 % im Vergleich zur Kontrolle; GSH/Protein (humanen Fibroblasten): 77 % im Vergleich zur Kontrolle; Zellproteine (humanen Fibroblasten): 95 % im Vergleich zur Kontrolle
